Where a name gives a salt, the structure may show the parent alone.
Assays:
Adenylate cyclase = Adenylate cyclase stimulation (cAMP) in rat striatal homogenates; type: biochemical; details: 100 μM; control (no addition) 2.38 ± 0.14; N=4
Description: of cAMP in rat striatal homogenates; inhibition of binding of

rats = test: Catalepsy (maintenance of abnormal posture on bar); type: in vivo, rat (male Sprague-Dawley); details: i.p.
Description: Male Sprague-Dawley (Charles River Labs.) rats (initially 175-200 g) were housed four per cage, with free access to food and water, under controlled lighting (on 7:00 a.m. to 7:00 p.m.), constant temperature 21°-23° C. and controlled humidity (40-50%). Aporphines were administered, as described below, freshly dissolved in 1 mM citric acid mixed with 0.9% (w/v) saline (1:4, vols.); this solvent was also used as a vehicle ("placebo") control. Haloperidol was given in the same medium; 2-diethyl aminoethyl-2,2 diphenylvalerate HCl (SKF-525A) was given in saline.
Catalepsy was assessed as described in detail elsewhere (Campbell and Baldessarini, 1981a; 1981b, Life Sciences 29 1341-46). Briefly, rats were evaluated every 10 min. by timing (stopwatch) their maintenance of an abnormal posture with forelimbs on a 1 cm-diameter steel bar parallel to, and 8 cm above the bench, so that the rat rested on its hindquarters only; 60 sec. was taken as a maximum and nearly all normal untreated rats remained on the bar for less than 5 sec. […]
In all experiments except those which evaluated the time-course of drug effects, rats were given an injection of vehicle and then allowed to rest for 15 min. to adapt to nonspecific arousal effects, prior to a second injection of test agent (or placebo) and immediate behavioral testing. […]

CCCN1CCc2cccc3c2[C@H]1Cc1ccc2c(c1-3)OCO2 [MDO-NPA, (-) 10, 11-methylenedioxy-N-n-propylnoraporphine-HCl]
Adenylate cyclase stimulation (cAMP) (Adenylate cyclase): 2.92 ± 0.32 pmol/assay | dose of maximum effect, catalepsy (rats): 0.3 µmol/kg | catalepsy (rats; doses similar to those which inhibited general activity): strong catalepsy

— patent publication US4543256A, “(-)-10,1L Methylenedioxy-N-N-propylnoraporphine and methods employing it for inhibiting the effects of epileptic seizures and for prevention and treatment of duodenal ulcers” (Northeastern University, priority 1982, dated 1985)
